Experimental data from publication PMC5064002, “Sintokamide A Is a Novel Antagonist of Androgen Receptor That Uniquely Binds Activation Function-1 in Its Amino-terminal Domain” (The Journal of Biological Chemistry, 2016).
“And” between values parts separate entries of the source, which are not always exact repeats. Identical values can stand only once. Like-named read-outs stand apart in the source and are kept apart here.

Key:
[1] = Pharmacokinetics in CD-1 mice; format: in vivo; conditions: single intravenous dose 50 mg/kg
Protocol: Pharmacokinetics assays were performed by NAEJA Pharmaceutical Inc. in a total of 27 CD-1 mice, which received a single intravenous SINT1 dose of 50 mg/kg of body weight. Blood samples were collected during a period of 2.5 min to 8 h postdosing from three mice per time point. Plasma concentrations of SINT1 and pharmacokinetics parameters were determined.

[2] = molecular target: T1, glucocorticoid receptor (GR)-α (Homo sapiens, UniProt P04150); assay: Steroid receptor specificity: GRE-luciferase reporter in LNCaP cells; format: cell-based; conditions: 10 μM compound, 10 nM dexamethasone, 48 h
T1 construct: expressed in transfected cells; host or cells: LNCaP
T1 sequence (P04150 1-777): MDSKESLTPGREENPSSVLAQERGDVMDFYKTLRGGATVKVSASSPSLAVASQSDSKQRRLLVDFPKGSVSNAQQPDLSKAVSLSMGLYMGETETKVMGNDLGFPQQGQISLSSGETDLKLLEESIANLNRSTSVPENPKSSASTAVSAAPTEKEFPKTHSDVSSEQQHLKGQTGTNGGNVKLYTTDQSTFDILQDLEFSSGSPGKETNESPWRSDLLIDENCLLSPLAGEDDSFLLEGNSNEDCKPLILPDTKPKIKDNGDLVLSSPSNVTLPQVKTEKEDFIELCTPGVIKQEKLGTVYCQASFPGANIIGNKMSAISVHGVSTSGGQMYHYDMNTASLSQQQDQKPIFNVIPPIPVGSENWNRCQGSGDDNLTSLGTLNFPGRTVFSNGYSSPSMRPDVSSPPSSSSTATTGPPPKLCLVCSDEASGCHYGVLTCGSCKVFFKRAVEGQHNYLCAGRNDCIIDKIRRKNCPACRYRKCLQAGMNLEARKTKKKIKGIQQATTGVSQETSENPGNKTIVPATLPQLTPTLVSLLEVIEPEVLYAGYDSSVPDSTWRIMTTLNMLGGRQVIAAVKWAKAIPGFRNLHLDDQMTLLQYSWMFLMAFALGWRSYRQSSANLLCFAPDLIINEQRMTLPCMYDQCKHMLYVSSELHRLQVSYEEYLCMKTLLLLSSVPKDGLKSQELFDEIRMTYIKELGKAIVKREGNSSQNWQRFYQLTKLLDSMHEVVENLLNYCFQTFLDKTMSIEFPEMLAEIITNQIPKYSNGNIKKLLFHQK
Protocol: LNCaP cells were transfected with the reporter plasmid PSA(6.1kb)-luciferase, PRE-luciferase, or GRE-luciferase and expression vector for progesterone receptor (PR)-β or glucocorticoid receptor (GR)-α in serum-free, phenol red-free medium using Lipofectin (Invitrogen). […] After 48 h of treatment, cells were lysed and analyzed for luciferase activities.
FIGURE 1. […] A, LNCaP cells were transfected with PSA (6.1 kb)-luciferase, PRE-luciferase, or GRE-luciferase reporters and expression vector for PRβ or GRα. […] Error bars represent mean percentage of vehicle activity ±S.E. of at least three independent experiments with triplicate wells. SINT1, 10 μM; […]; ***, p < 0.001. […]. Error bars represents mean ± S.E. of three technical replicates. […] DAPI staining indicates the location of the nucleus. Scale bars, 20 μm.

endogenous AR = molecular target: T2, endogenous AR (Homo sapiens, UniProt P10275, T878A); assay: Steroid receptor specificity: PSA(6.1kb)-luciferase reporter in LNCaP cells; format: cell-based; conditions: 10 μM compound, 1 nM R1881, 48 h
T2 construct: endogenous in cells; host or cells: LNCaP
T2 sequence (P10275 1-920 T878A): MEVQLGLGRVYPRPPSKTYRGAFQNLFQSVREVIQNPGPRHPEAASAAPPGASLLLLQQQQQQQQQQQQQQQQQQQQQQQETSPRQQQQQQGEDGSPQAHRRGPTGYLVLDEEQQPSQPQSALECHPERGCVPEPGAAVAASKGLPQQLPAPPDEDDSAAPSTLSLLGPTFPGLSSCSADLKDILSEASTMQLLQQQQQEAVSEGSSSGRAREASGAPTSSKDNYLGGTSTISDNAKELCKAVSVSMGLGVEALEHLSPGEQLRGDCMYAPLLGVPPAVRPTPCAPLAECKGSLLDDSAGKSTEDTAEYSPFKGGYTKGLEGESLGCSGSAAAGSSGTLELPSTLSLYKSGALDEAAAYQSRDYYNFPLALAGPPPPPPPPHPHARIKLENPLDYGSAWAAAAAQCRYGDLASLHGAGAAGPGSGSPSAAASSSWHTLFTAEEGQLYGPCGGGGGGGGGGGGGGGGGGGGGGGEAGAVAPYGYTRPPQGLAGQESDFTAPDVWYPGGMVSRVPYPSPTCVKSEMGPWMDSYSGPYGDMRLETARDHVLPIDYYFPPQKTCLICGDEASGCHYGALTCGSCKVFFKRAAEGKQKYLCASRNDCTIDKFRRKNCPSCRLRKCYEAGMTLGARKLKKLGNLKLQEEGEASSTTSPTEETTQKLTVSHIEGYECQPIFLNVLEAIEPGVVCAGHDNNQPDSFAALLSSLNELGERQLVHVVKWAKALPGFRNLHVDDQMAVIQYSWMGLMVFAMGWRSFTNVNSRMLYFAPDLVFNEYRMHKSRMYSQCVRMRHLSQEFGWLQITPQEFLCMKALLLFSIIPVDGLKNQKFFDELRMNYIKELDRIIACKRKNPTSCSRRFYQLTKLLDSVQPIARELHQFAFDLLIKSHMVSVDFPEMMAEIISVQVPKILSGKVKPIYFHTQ

[3] = mice sets 1-3 and mean ± S.D., mean

CCC(=O)NC(CC(C)C(Cl)(Cl)Cl)C(=O)N1C(=O)C=C(OC)C1CC(C)C(Cl)Cl (stereo not shown) [SINT1, Sintokamide A]
Cmax ([1]; CD-1, mouse, plasma, iv, 50 mg/kg, plasma, mice sets 1-3 and mean ± S.D., read-out: Cmax): 3.99 µg/mL | AUC(0-inf) ([1]; CD-1, mouse, plasma, iv, 50 mg/kg, mice sets 1-3 and mean ± S.D.): 1.84 µg·h/mL | clearance ([1]; CD-1, mouse, plasma, iv, 50 mg/kg, mice sets 1-3 and mean ± S.D., read-out: Cl (plasma clearance) (converted)): 22 L/h/kg | Vd ([1]; CD-1, mouse, plasma, iv, 50 mg/kg, mice sets 1-3 and mean ± S.D., read-out: Vd (volume of distribution)): 43.7 L/kg | half-life ([1]; CD-1, mouse, plasma, iv, 50 mg/kg, mice sets 1-3 and mean ± S.D., read-out: t½ (elimination half-life) (converted)): 1.38 h | Cmax ([1]; CD-1, mouse, plasma, iv, 50 mg/kg, read-out: Cmax in plasma): ~8 µM | Cmax ([1]; plasma, mice sets 1-3 and mean ± S.D.): 4.44 µg/mL and 4.03 µg/mL | Cmax ([1]; plasma, mice sets 1-3 and mean ± S.D., mean): 4.15 ± 0.25 µg/mL | AUCinf ([1]; mice sets 1-3 and mean ± S.D.): 2.37 µg·h/mL and 1.51 µg·h/mL | Cl (plasma clearance) ([1]; mice sets 1-3 and mean ± S.D.): 17.04 L/h/kg and 26.80 L/h/kg | t½ (elimination half-life) ([1]; mice sets 1-3 and mean ± S.D.): 1.10 h and 1.01 h | AUCinf [1, 3]: 1.90 ± 0.43 µg·h/mL | Cl (plasma clearance) [1, 3]: 21.93 ± 4.88 L/h/kg | t½ (elimination half-life) [1, 3]: 1.16 ± 0.19 h | GR transcriptional activity (GRE-luciferase) [2]: did not affect | androgen-induced activity of endogenous AR (PSA (6.1 kb)-luciferase) (endogenous AR): significantly inhibited
